Consider one compound from patent US20230087359A1, “CANNABINOID COMPOSITIONS AND METHODS OF USE THEREOF” (DAY THREE LABS MAN[…]., priority 2017, published 2023).

Each structure is given as a SMILES string.

The subject of the experiment is pentobarbital-induced sleep. In words: Loss Of Righting Reflex (LORR) test, pentobarbital-induced sleep in mice. Type of experiment: in vivo, mouse (7-week-old male Balb/C mice).
The mark [1] stands for this setting: LORR test, IP treatment 30 min before pentobarbital 30 or 40 mg/kg IP, diazepam 3 mg/kg.

`CN1C(=O)CN=C(c2ccccc2)c2cc(Cl)ccc21` [diazepam]: the “percentage of mice in treatment group that fell asleep after pentobarbital administration” value (Example 1, FIG. 3) was 92%. Further, under “Example 1, FIG. 4”, the “percentage of subjects with a transient awakening (woke up once) during the sleep session” value came to 25% and the “percentage of subjects with no transient awakenings during the sleep session” value is given as 75%. Besides, the “percentage of mice in treatment group that fell asleep after pentobarbital administration (response rate)” value (Example 2, FIG. 7) is given as 86%. Under setting [1], this compound showed a mean sleep duration of 60 to 90 min and a mean sleep onset of 3 to 5 min.
